Entries after “also recorded” stand apart in the source; their conditions may differ.

One assay has as its system INPP5D. As to conditions: van Leuven et al., 2010; cited from earlier work.
Assay [1] deals with FVB donor hearts implanted into C57BL/6 WT mice (cardiac allograft). Put plainly: Graft survival in murine heterotopic cardiac transplant model of acute rejection. In kind it is in vivo, mouse. As to conditions: for allograft survival compared to untreated AR / Median survival: FVB-to-C57BL/6 cardiac transplant; for allograft survival compared to untreated AR: 6 pairs per group; for Median survival: atorvastatin 75 and dasatinib 25 mg/kg/day oral gavage, cyclosporine 20 mg/kg/day i.p., followed to POD 30, untreated AR 10 days. The method, then: (§1) FVB donor hearts were implanted into the abdomen of C57BL/6 WT mice representing a complete MHC mismatch, as described previously. […] Animal activity, body weight and graft viability (abdominal palpation) were assessed daily.
(§2) Before oral gavages of Atorvastatin and Dasatinib, aliquots were mixed thoroughly. Unused formulations were discarded. Treatment started the day prior to transplantation and lasted until the day before sacrifice at post operation day 7 by exsanguination. Grafts were harvested and divided into three equal parts for downstream analyses.
Graft viability (abdominal palpation) were assessed daily for these animals until post operation day 30.

Assay [2] concerns graft infiltrating cells in cardiac allograft. Put plainly: Graft histology / immunohistochemistry of infiltrating cells at POD 7. In kind it is in vivo, mouse. The conditions noted are these: for number of infiltrating cells (immunohistochemistry): POD 7, compared to untreated AR. The method, then: as §1, §2
One third of the explanted allograft heart (POD7) was immediately fixed in […] buffered formalin, embedded in paraffin and subsequently stained with hematoxylin and eosin for histological assessment of tissue according to standard protocols. Pictures of the graft tissue were taken at 10× magnification using a Nikon E600 light microscope (Nikon Instruments Inc., Melville, N.Y.) and Spot V4.6 imaging software (Spot Imaging, Sterling Heights, Mich.).

Assay [3] has as its system infiltrating cell subsets in cardiac allografts. Put plainly: Flow cytometry count of infiltrating cell subsets in cardiac allografts. Format: in vivo, mouse. The conditions noted are these: for number of infiltrating B220+ B cells compared to cyclosporine: POD 7, compared to cyclosporine group; for number of CD45+ infiltrating cells / number of infiltrating B220+ B cells / number of infiltrating CD4+ T cells / number of infiltrating CD8+ T cells / number of infiltrating CD11c+ dendritic cells / number of infiltrating F4/80+ macrophages / number of infiltrating NK1.1+ natural killer cells: POD 7, compared to untreated AR. The method, then: as §1, §2
Fluorescein isothiocyanate (FITC), phycoerythin (PE), or allophycocyanin-conjugated mAbs specific for mouse CD4 (GK1.5), CD8a (53-6.7), F4/80 (BM8), B220 (RA3-6B2), Gr1 (RB6-8C5), CD11c (N418), NK1.1 (PK136), CD45 (30-F11), and their isotype controls were purchased from BD Biosciences (San Jose, Calif.), eBioscience (San Diego, Calif.), or BioLegend (San Diego, Calif.). Immediately after graft explantation at day 7 post transplantation, one third of the cardiac allograft was homogenized in RPMI 1640 media with 2 mg/mL Collagenase D (Worthington Bio) and 10% FCS for 2 h at RT. Cells were first incubated with normal hamster serum, normal mouse serum (Jackson ImmunoResearch), and 5 μg/ml anti-CD16/32 mAb (2.4G2; BD Bioscience), then stained with FITC-, PE-, and APC-conjugated mAbs for 30 min at 4° C. To exclude the dead cells, 7-Amino-Actinomycin D (BD Bioscience) was added and incubated for 10 minutes before analysis. Expression of markers was determined by FACS Calibur (BD Bioscience) and FlowJo software (Tree Star).
In general terms: A flow cytometer gives signals particle by particle.

In another assay the test system is CRM genes. Kind of assay: Transcriptional analysis of mouse heart allografts (microarray with IPA pathway analysis, Q-PCR of CRM genes). Format: in vivo. The conditions noted are these: treatment group against untreated AR group. The method, then:
We performed functional pathway analysis using Pathway-Express (PE). We used meta effect-size as fold change in PE to identify significant pathways. We used FDR<0.1 as a threshold for identifying significant pathways. We performed network analysis using IPA with option to only include “direct relationship” in order to avoid spurious connections due to “indirect relations”.
QRT-PCR for the CIRM module genes in mouse allografts was performed using a high-throughput RT-PCR instrument (BioMark; Fluidigm, San Francisco, Calif.). […] Data was analyzed using the BioMark RT-PCR Analysis Software Version 2.0. Using the delta Ct method, gene expression in each sample was calculated relative to the expression in a universal RNA sample (human universal RNA, Stratagene, CA). […]
For whole mouse genome expression analysis, Agilent Whole Mouse Genome 4×44K 60mer oligonucleotide arrays (G2519F, Agilent Technologies, Palo Alto, Calif.) were used. […] After purification, using the RNeasy mini kit (Qiagen), cRNA yield and Cy incorporation efficiency (specific activity) into the cRNA were determined using a NanoDrop Spectrophotometer (NanoDrop Technologies). cRNAs showing a yield >825 ng and a specific activity of 8-20 pmol/μg were selected for further processing. […]

As for `COc1c(C)c2c(c(O)c1C/C=C(\C)CCC(=O)OCCN1CCOCC1)C(=O)OC2` [Mycophenolate mofetil], the “reduction of expression of INPP5D” value in the assay with INPP5D is “more than 2 fold”.
In the case of `CC(C)c1c(C(=O)Nc2ccccc2)c(-c2ccccc2)c(-c2ccc(F)cc2)n1CC[C@@H](O)C[C@@H](O)CC(=O)O` [atorvastatin], in assay [1], the “allograft survival compared to untreated AR” value was “significantly extended allograft survival” and the Median survival is 17 days. Further, in assay [2], the “number of infiltrating cells (immunohistochemistry)” value is given as “significantly reduced; also recorded: fewer infiltrating cells”. In assay [3], the “number of infiltrating B220+ B cells compared to cyclosporine” value is given as “reduced”, the “number of CD45+ infiltrating cells” value is on record as “significantly reduced”, the “number of infiltrating B220+ B cells” value is listed as “significantly reduced” and the “number of infiltrating CD4+ T cells” value is “reduced”. In assay [3], the “number of infiltrating CD8+ T cells” value is “reduced”, the “number of infiltrating CD11c+ dendritic cells” value is “significantly reduced”, the “number of infiltrating F4/80+ macrophages” value was “significantly reduced” and the “number of infiltrating NK1.1+ natural killer cells” value is “significantly reduced”. Moreover, the “pathways affected (IPA pathway analysis of down-regulated genes)” value in the assay with CRM genes was “monocyte- and macrophage-related pathways”.
On to `Cc1nc(Nc2ncc(C(=O)Nc3c(C)cccc3Cl)s2)cc(N2CCN(CCO)CC2)n1` [dasatinib], for which the “hazard ratio for graft survival” value in assay [1] (Cox-proportional hazard analysis, treated compared to untreated AR) was found to be 66.26. In addition, in assay [1], the “allograft survival compared to untreated AR” value was “significantly extended allograft survival” and the Median survival is on record as 24.5 days. Besides, the “number of infiltrating cells (immunohistochemistry) relative to cyclosporine” value in assay [2] (POD 7, compared to treatment with cyclosporine (p>0.05)) is given as “equivalent”. In assay [2], the “number of infiltrating cells (immunohistochemistry)” value is listed as “significantly reduced; also recorded: fewer infiltrating cells”. For the same molecule, in assay [3], the “number of infiltrating B220+ B cells compared to cyclosporine” value was “reduced”, the “number of CD45+ infiltrating cells” value is listed as “significantly reduced”, the “number of infiltrating B220+ B cells” value is “significantly reduced” and the “number of infiltrating CD4+ T cells” value is recorded as “reduced”. In assay [3], the “number of infiltrating CD8+ T cells” value is recorded as “reduced”, the “number of infiltrating CD11c+ dendritic cells” value is reported as “significantly reduced”, the “number of infiltrating F4/80+ macrophages” value was “significantly reduced” and the “number of infiltrating NK1.1+ natural killer cells” value is given as “significantly reduced”. Besides, the “pathways affected (IPA pathway analysis of down-regulated genes)” value with CRM genes is listed as “cell cycle-related pathways”.
